Source: ChEMBL document CHEMBL4033613, “Rearranged Terpenoids from the Marine Sponge Darwinella cf. oxeata and Its Predator, the Nudibranch Felimida grahami” (J Nat Prod, 2017)

Assays:
[1] = system: Trypanosoma cruzi; assay: Antitrypanosomal activity against Trypanosoma cruzi intracellular amastigotes; format: functional, cell-based
[2] = system: Trypanosoma cruzi; assay: Antitrypanosomal activity against Trypanosoma cruzi trypomastigotes; format: functional
[3] = Cytotoxicity against mammalian NCTC cells; format: functional; conditions: Mammalia
[4] = Trypanosoma cruzi, read-out: IC50

SMILES | IC50 [1] | IC50 [2] | IC50 [1, 4] [µM] | CC50 [3] [µM] | IC50 [2, 4] [µM]
C[C@@H](C(=O)O)c1c([C@@]2(C)CCCC(C)(C)C2)ccc2c1CN(CC(=O)O)C2=O | Not Active | Not Active |  |  | 
C[C@@H](C(=O)O)c1c([C@@]2(C)CCCC(C)(C)C2)ccc2c1CN(C)C2=O | Not Active | Not Active |  |  | 
COC(=O)[C@H](C)c1c([C@@]2(C)CCCC(C)(C)C2)ccc2c1C(=O)OC2 |  |  | 20 | 54 | 29
